The text below walks through data of US9206156B2, “Substituted indole derivatives” (GRÜNENTHAL GMBH, priority 2008, dated 2015).

For one assay, the target named is T1, ORL1 receptor (Homo sapiens, UniProt P41146).
T1 construct: expressed in transfected cells; host or cells: CHO (recombinant CHO-ORL1 cells), membranes
Put plainly: ORL1 receptor binding assay with 3H-nociceptin/orphanin FQ (WGA-SPA beads). Particulars: c=1 μM test substance; 0.5 nM 3H-nociceptin/orphanin FQ; membranes of recombinant CHO-ORL1 cells. How it is done:
Measurement of ORL1 Binding
The cyclohexane derivatives having the general formula I were investigated in a receptor binding assay with ^3H-nociceptin/orphanin FQ with membranes of recombinant CHO—ORL1 cells. This test system was conducted in accordance with the method described by Ardati et al. (Mol. Pharmacol., 51, 1997, p. 816-824). The concentration of ^3H-nociceptin/orphanin FQ in these tests was 0.5 nM. The binding assays were carried out with 20 μg amounts of membrane protein per 200 μl batch in 50 mM Hepes, pH 7.4, 10 mM MgCl2 and 1 mM EDTA. The binding to the ORL1 receptor was determined using 1 mg amounts of WGA-SPA beads (Amersham-Pharmacia, Freiburg, Germany), by incubation of the batch for one hour at room temperature and subsequent measurement in a Trilux scintillation counter (Wallac, Finland). The affinity is given in Table 1 as the nanomolar Ki value or in % inhibition at c=1 μM.

In a further assay the target is T2, human μ-opiate receptor (Homo sapiens, UniProt P35372).
T2 construct: purchased NEN, Zaventem, Belgium RB-HOM; host or cells: CHO-K1 cells (membrane preparation)
T2 sequence (P35372 whole entry): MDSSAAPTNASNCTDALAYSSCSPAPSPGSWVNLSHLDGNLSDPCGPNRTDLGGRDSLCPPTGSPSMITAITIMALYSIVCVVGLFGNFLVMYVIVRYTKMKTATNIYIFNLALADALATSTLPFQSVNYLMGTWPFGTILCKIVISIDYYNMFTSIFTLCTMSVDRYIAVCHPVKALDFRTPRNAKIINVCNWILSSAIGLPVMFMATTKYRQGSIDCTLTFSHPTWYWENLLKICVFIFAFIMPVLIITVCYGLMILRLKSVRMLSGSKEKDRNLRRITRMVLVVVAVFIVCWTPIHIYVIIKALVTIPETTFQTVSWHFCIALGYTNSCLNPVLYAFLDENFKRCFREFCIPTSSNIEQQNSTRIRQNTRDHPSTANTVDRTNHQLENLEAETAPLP
Put plainly: μ-opiate receptor binding assay with [3H] naloxone (WGA-SPA beads). Conditions: 1 μmol/l test substance, 1 nmol/l [3H] naloxone, CHO-K1 cell membranes expressing human μ-opiate receptor. As for the experimental part:
The receptor affinity to the human μ-opiate receptor was determined in a homogeneous batch in microtitre plates. To this end, dilution series of the substituted indole derivative to be tested were incubated for 90 minutes at room temperature with a receptor membrane preparation (15-40 μg protein per 250 μl incubation batch) of CHO-K1 cells, which express the human μ-opiate receptor (RB—HOM receptor membrane preparation from NEN, Zaventem, Belgium), in the presence of 1 nmol/l of the radioactive ligand [^3H] naloxone (NET719, NEN, Zaventem, Belgium) and 1 mg of WGA-SPA beads (wheat germ agglutinin SPA beads from Amersham/Pharmacia, Freiburg, Germany) in a total volume of 250 μl. 50 mmol/l tris-HCl supplemented with 0.05 wt. % sodium azide and 0.06 wt. % bovine serum albumin were used as the incubation buffer. In order to determine the non-specific binding, 25 μmol/l of naloxone were also added. At the end of the ninety-minute incubation period the microtitre plates were centrifuged for 20 minutes at 1000 g and the radioactivity was measured in a β counter (Microbeta-Trilux, PerkinElmer Wallac, Freiburg, Germany). The percentage displacement of the radioactive ligand from its binding to the human μ-opiate receptor was determined at a test substance concentration of 1 μmol/l and stated as the percentage inhibition (% inhibition) of the specific binding. In some cases the percentage displacement due to differing concentrations of the compounds having the general formula I to be tested was used to calculate the IC50 inhibition concentrations which bring about a 50-percent displacement of the radioactive ligand. Ki values for the test substances were obtained by extrapolation using the Cheng-Prusoff equation.

T1 sequence (P41146 whole entry): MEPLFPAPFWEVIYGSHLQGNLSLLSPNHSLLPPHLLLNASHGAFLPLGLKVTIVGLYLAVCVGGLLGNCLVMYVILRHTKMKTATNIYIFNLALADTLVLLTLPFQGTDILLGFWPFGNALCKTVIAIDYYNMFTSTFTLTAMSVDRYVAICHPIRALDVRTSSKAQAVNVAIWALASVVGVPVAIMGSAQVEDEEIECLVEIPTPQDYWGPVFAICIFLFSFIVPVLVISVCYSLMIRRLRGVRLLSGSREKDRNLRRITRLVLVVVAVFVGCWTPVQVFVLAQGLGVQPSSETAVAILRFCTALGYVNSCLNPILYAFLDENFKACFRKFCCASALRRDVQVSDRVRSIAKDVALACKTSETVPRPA

For orientation: inhibition means the change of the read-out against control, counted positive when it falls. Turning to `COc1ccc2[nH]cc(CN(C)CCN3CCC(c4ccccc4)(N(C)C)CC3)c2c1` [Example 190, 1-(2-(((5-methoxy-1H-indol-3-yl)methyl)(methyl)amino)ethyl)-N,N-dimethyl-4-phenylpiperidin-4-amine], the figures for the inhibition at 1 µM on ORL1 receptor and at human μ-opiate receptor were 80% and 97%, respectively.
On to `CN(C)C1(c2cccs2)CCN(CCNC(=O)Cc2c[nH]c3cc(F)ccc23)CC1` [Example 8, N-(2-(4-(Dimethylamino)-4-(thiophen-2-yl)piperidin-1-yl)ethyl)-2-(6-fluoro-1H-indol-3-yl)acetamide], for which the inhibition at 1 µM on ORL1 receptor was found to be 96%; on human μ-opiate receptor it was 99%.
On to `CN(CCN1CCC(c2ccccc2)(N(C)C)CC1)Cc1cccc2[nH]ccc12` [Example 194, 1-(2-(((1H-indol-4-yl)methyl)(methy)amino)ethyl)-N,N-dimethyl-4-phenylpiperidin-4-amine], for which the “% Inhibition (ORL1) at 1 μM” value on ORL1 receptor is 56%. For the same compound, the “% Inhibition (μ) at 1 μM” value at human μ-opiate receptor was 99%.
Regarding `CC(C)C(CC(=O)N(C)CCN1CCC(c2ccccc2)(N(C)C)CC1)c1c[nH]c2ccccc12` (stereo not drawn) [Example 24, N-(2-(4-(Dimethylamino)-4-phenylpiperidin-1-yl)ethyl)-3-(1H-indol-3-yl)-N,4-dimethylpentanamide], the inhibition at 1 µM on ORL1 receptor stood at 84%; at human μ-opiate receptor it was 97%.
In the case of `CC(C)C(CC(=O)NCCN1CCC(c2cccs2)(N(C)C)CC1)c1c[nH]c2ccccc12` (stereo not drawn) [Example 2, N-(2-(4-(Dimethylamino)-4-(thiophen-2-yl)piperidin-1-yl)ethyl)-3-(1H-indol-3-yl)-4-methylpentanamide], the results for the inhibition at 1 µM on ORL1 receptor and at human μ-opiate receptor were 96% and 99%, respectively.
Regarding `COc1ccc2[nH]cc(CN(C)CCN3CCC(c4ccccc4)(N(C)C)CC3)c2c1` [Example 75, 1-(2-(((5-Methoxy-1H-indol-3-yl)methyl)(methyl)amino)ethyl)-N,N-dimethyl-4-phenylpiperidin-4-amine], the “% Inhibition (ORL1) at 1 μM” value at ORL1 receptor is 79%. Besides, the “% Inhibition (μ) at 1 μM” value on human μ-opiate receptor is 97%.
Consider `CN(C)c1ccc2cc(C(=O)NCCC(=O)N3CCC(c4ccccc4)(N(C)C)CC3)[nH]c2c1` [Example 120, 6-(dimethylamino)-N-(3-(4-(dimethylamino)-4-phenylpiperidin-1-yl)-3-oxopropyl)-1H-indole-2-carboxamide], for which the inhibition at 1 µM on ORL1 receptor was determined as 45%; on human μ-opiate receptor, 60%.
`Cc1c(CN(C)CCCN2CCC(c3cccs3)(N(C)C)CC2)c2ccccc2n1C` [Example 81, 1-(3-(((1,2-Dimethyl-1H-indol-3-yl)methyl)(methyl)amino)propyl)-N,N-dimethyl-4-(thiophen-2-yl)piperidin-4-amine]: the figures for the inhibition at 1 µM on ORL1 receptor and at human μ-opiate receptor were 98% and 100%, respectively.
On to `CN(C)C1(c2cccs2)CCN(CCNCc2c[nH]c3ccc(Cl)cc23)CC1` [Example 72, 1-(2-((5-Chloro-1H-indol-3-yl)methylamino)ethyl)-N,N-dimethyl-4-(thiophen-2-yl)piperidin-4-amine], for which the “% Inhibition (ORL1) at 1 μM” value on ORL1 receptor was determined as 95%. Further, the “% Inhibition (μ) at 1 μM” value at human μ-opiate receptor is 101%.
In the case of `CN(CCCN1CCC(c2cccs2)(N(C)C)CC1)C(=O)CCc1cn(C)c2ccccc12` [Example 13, N-(3-(4-(Dimethylamino)-4-(thiophen-2-yl)piperidin-1-yl)propyl)-N-methyl-3-(1-methyl-1H-indol-3-yl)propanamide], the inhibition at 1 µM on ORL1 receptor stood at 35%; at human μ-opiate receptor, 80%.
Take `CN(C)C1(c2cccs2)CCN(C(=O)CC(NCc2ccc3[nH]ccc3c2)c2ccccc2)CC1` (stereo not drawn) [Example 165, 3-((1H-indol-5-yl)methylamino)-1-(4-(dimethylamino)-4-(thiophen-2-yl)piperidin-1-yl)-3-phenylpropan-1-one]: the inhibition at 1 µM was determined as 47% on ORL1 receptor and 92% at human μ-opiate receptor.
Consider `CN(CCN1CCC(c2ccccc2)(N(C)C)CC1)C(=O)C1CCCc2c1[nH]c1ccc(Cl)cc21` (stereo not drawn) [Example 127, 6-chloro-N-(2-(4-(dimethylamino)-4-phenylpiperidin-1-yl)ethyl)-N-methyl-2,3,4,9-tetrahydro-1H-carbazole-1-carboxamide], for which the “% Inhibition (ORL1) at 1 μM” value at ORL1 receptor is given as 39%. The inhibition at 1 µM on human μ-opiate receptor stood at 68%.
Consider `CC(C)C(CC(=O)N1CC(C(=O)N2CCC(c3ccccc3)(N(C)C)CC2)c2ccccc21)c1c[nH]c2ccccc12` (stereo not drawn) [Example 89, 1-(3-(4-(dimethylamino)-4-phenylpiperidine-1-carbonyl)indolin-1-yl)-3-(1H-indol-3-yl)-4-methylpentan-1-one], for which the results for the inhibition at 1 µM on ORL1 receptor and at human μ-opiate receptor were 91% and 94%, respectively.
`CN(CCN1CCC(c2ccccc2)(N(C)C)CC1)C(=O)Cc1c[nH]c2cc(F)ccc12` [Example 90, N-(2-(4-(dimethylamino)-4-phenylpiperidin-1-yl)ethyl)-2-(6-fluoro-1H-indol-3-yl)-N-methylacetamide]: the “% Inhibition (ORL1) at 1 μM” value at ORL1 receptor is reported as 90%. For the same compound, the “% Inhibition (μ) at 1 μM” value on human μ-opiate receptor turned out to be 99%.
For the compound `CN(CCN1CCC(c2ccccc2)(N2CCCC2)CC1)C(=O)Cc1c[nH]c2cc(F)ccc12` [Example 36, 2-(6-Fluoro-1H-indol-3-yl)-N-methyl-N-(2-(4-phenyl-4-(pyrrolidin-1-yl)piperidin-1-yl)ethyl)acetamide], the inhibition at 1 µM at ORL1 receptor turned out to be 31%; at human μ-opiate receptor, 62%.
Consider `CN(C)C1(c2ccccc2)CCN(C(=O)C2CCCN(Cc3ccc4[nH]ccc4c3)C2)CC1` (stereo not drawn) [Example 148, (1-((1H-indol-5-yl)methyl)piperidin-3-yl)(4-(dimethylamino)-4-phenylpiperidin-1-yl)methanone], for which the inhibition at 1 µM came out at 17% at ORL1 receptor and 41% on human μ-opiate receptor.
For `CC(C)C(C(=O)N1CCC(c2ccccc2)(N(C)C)CC1)N(C)C(=O)CCc1c[nH]c2ccccc12` (stereo not drawn) [Example 94, N-(1-(4-(dimethylamino)-4-phenylpiperidin-1-yl)-3-methyl-1-oxobutan-2-yl)-3-(1H-indol-3-yl)-N-methylpropanamide], the inhibition at 1 µM at ORL1 receptor is 82%; on human μ-opiate receptor, 71%.
`CN(CCN1CCC(c2ccccc2)(N(C)C)CC1)C(=O)c1ccc2cc[nH]c2c1` [Example 1, N-(2-(4-(Dimethylamino)-4-phenylpiperidin-1-yl)ethyl)-N-methyl-1H-indol-6-amide]: the “% Inhibition (ORL1) at 1 μM” value at ORL1 receptor is on record as 80%. Also, the “% Inhibition (μ) at 1 μM” value on human μ-opiate receptor was found to be 94%.
In the case of `CC(C)C(CC(=O)NCCN1CCC(c2cccs2)(N(C)C)CC1)c1c[nH]c2ccccc12` (stereo not drawn) [Example 6, N-(2-(4-(Dimethylamino)-4-(thiophen-2-yl)piperidin-1-yl)ethyl)-3-(1H-indol-3-yl)-4-methylpentanamide], the “% Inhibition (ORL1) at 1 μM” value on ORL1 receptor is reported as 98%. The “% Inhibition (μ) at 1 μM” value at human μ-opiate receptor came to 102%.
In the case of `CN(CCN1CCC(c2ccccc2)(N(C)C)CC1)Cc1c(-c2ccc(F)cc2)[nH]c2ccccc12` [Example 70, 1-(2-(((2-(4-Fluorophenyl)-1H-indol-3-yl)methyl)(methyl)amino)ethyl)-N,N-dimethyl-4-phenylpiperidin-4-amine], the inhibition at 1 µM at ORL1 receptor is 80%; on human μ-opiate receptor, 98%.
In the case of `CN(C)C1(c2ccccc2)CCN(C(=O)CCNC(=O)c2ccc3cc[nH]c3c2)CC1` [Example 113, N-(3-(4-(dimethylamino)-4-phenylpiperidin-1-yl)-3-oxopropyl)-1H-indole-6-carboxamide], the inhibition at 1 µM at ORL1 receptor was 57%; at human μ-opiate receptor, 89%.
